Measured values published in patent publication US12161694B2, “Methods and compositions for regulating innate lymphoid cell inflammatory responses” (The Broad Institute, Inc., priority 2017, dated 2024).
“Also recorded” adds a separate entry of the source. Where no end group is shown, it is not given here.

Legend:
Th2 cells = assay: T cell in vitro culture (Th2 differentiation), Il5/Il13 qPCR; assay type: cell-based, mouse; conditions: Th2 cells cultured with or without NMU 1 μg/ml
Description: (§1) Quantitative real-time PCR. RNA was isolated using RNeasy Plus Mini Kit (Qiagen) and reverse transcribed to cDNA with iScript cDNA Synthesis Kit (Bio-Rad). Gene expression was analyzed by quantitative real-time PCR on a ViiA7 System (Thermo Fisher Scientific) using TaqMan Fast Advanced Master Mix (Thermo Fisher Scientific) with the following primer/probe sets: IL-5 (Mm00439646_m1), IL-13 (Mm00434204_m1), IL-17RB (Mm00444709_m1), Nmur1 (Mm04207994 m1), Nmur2 (Mm00600704_m1), and β-Actin (Applied Biosystems). Expression values were calculated relative to β-Actin detected in the same sample by duplex qPCR.
T cell in vitro culture. CD4^+ T cells were isolated as described previously^4 and sorted for naive T cells (CD4^+ CD62L^+ CD44^low) on a FACS Aria. Naive T cells were cultured in the presence of plate-bound anti-CD3 (1 μg/ml; Bio X Cell) and anti-CD28 (1 μg/ml; Bio X Cell) antibodies. […]
Quantitative real-time PCR. […] Gene expression was analyzed by quantitative real-time PCR on a ViiA7 System (Thermo Fisher Scientific) using TaqMan Fast Advanced Master Mix (Thermo Fisher Scientific) with the following primer/probe sets: Il5 (Mm00439646_m1), Il13 (Mm00434204_m1), Il17rb (Mm00444709_m1), Nmur1 (Mm04207994_m1), Nmur2 (Mm00600704_m1), Nmu (Mm00479868_m1) and Actb (Applied Biosystems). Expression values were calculated relative to Actb detected in the same sample by duplex qPCR. […]

[1] = system: ILCs sorted from the lungs of naive mice; assay: ILC in vitro culture: Il5/Il13 mRNA (qPCR) and IL-5/IL-13 in supernatant (LegendPlex); assay type: cell-based, mouse
Description: (§2) Fluorescence-activated cell sorting of innate lymphoid cells. After dissociation, single cell suspensions were incubated with CD90.2 MicroBeads (Miltenyi Biotec) on ice and enriched for CD90.2^+ cells by magnetic separation using LS columns according to the manufacturer's protocol. CD90.2^+ lung cells were then stained on ice with antibodies for sorting. ILCs were defined as 7AAD^− CD45^+ CD90.2^+ CD127^+ Lineage (CD11b, CD11c, CD19, NK1.1, CD3ε, CD4, CD8a, TCRβ, TCRγδ)^− cells and sorted on a BD FACS Aria (BD Biosciences).
ILC in vitro culture. For in vitro experiments 5,000 ILCs/well were cultured in a 96 well round bottom plate with 20 ng/ml IL-7 (R&D Systems), 200 ng/ml IL-33 (BioLegend) or 200 ng/ml IL-25 (R&D Systems) with or without 1 μg/ml Neuromedin U (US Biological). In some cases purified CD90.2^+ lung cells were first labeled with CellTrace Violet (Thermo Fisher Scientific), then sorted as described above, and cultured for 3 days under the indicated conditions.
as §1
Cytokine quantification. Cytokine concentrations in BAL fluid, lung and supernatant of in vitro ILC cultures were analyzed by the LegendPlex Mouse Th Cytokine Panel (13-plex) (BioLegend) according to the manufacturer's instructions and analyzed on a FACS Calibur (BD Biosciences).
as §2, with “protocol. CD90.2^−” for “protocol. CD90.2^+”, “(CD11b, CD 11c,” for “(CD11b, CD11c,”
ILC in vitro culture. For in vitro experiments 5,000 ILCs/well were cultured in a 96 well round bottom plate with 20 ng/ml IL-7 (R&D Systems), 200 ng/ml IL-25 (R&D Systems) or 20 ng/ml, 2 ng/ml or 0.2 ng/ml IL-33 (BioLegend) with or without 1 μg/ml Neuromedin U (US Biological). In some cases purified CD90.2^+ lung cells were first labeled with CellTrace Violet (Thermo Fisher Scientific), then sorted as described above, and cultured for 3 days under the indicated conditions.
as §1, with “Il5” for “IL-5”, “Il13” for “IL-13”, “Il17rb” for “IL-17RB”, “(Mm04207994_m1),” for “(Mm04207994 m1),”, “(Mm00600704_m1), Nmu (Mm00479868_m1)” for “(Mm00600704_m1),”, “Actb” for “β-Actin”

Q: What does the source list for “Neuromedin U (FRVDEEFQSPFASQSRGYFLFRPRN-NH2; listed as Homo sapiens) [NMU, neuropeptide ligand of Nmur1 (US Biological)]”?
A: Il5 and Il13 expression in Th2 cells (Th2 cells): not observed; also recorded: similar; also recorded: did not affect; also recorded: does not alter; Il5 and Il13 levels, NMU in combination with IL-33 ([1]; Example 1: ILCs in vitro, IL-33 200 ng/ml with NMU 1 μg/ml vs IL-33 alone): did not significantly alter; also recorded: neither amplifies; IL-33-induced IL-5 and IL-13 secretion with NMU ([1]; Example 2: ILCs in vitro, IL-33 20, 2 or 0.2 ng/ml with NMU 1 μg/ml, LegendPlex): enhanced; Il5 and Il13 expression in ILCs cultured in vitro ([1]; IL-7 20 ng/ml, IL-25 200 ng/ml, IL-33, NMU 1 μg/ml, mRNA by qPCR (protein by LegendPlex)): modest upregulation; also recorded: far lower than those observed in response to IL-25 and IL-33; also recorded: only mildly upregulated; increase of IL-5 and IL-13 protein levels in response to IL-25 ([1]; ILCs in vitro, IL-25 in conjunction with NMU vs IL-25 alone, LegendPlex): at least 8 fold; increase of Il5 and Il13 mRNA levels in response to IL-25 ([1]; ILCs in vitro, IL-25 in conjunction with NMU vs IL-25 alone, qPCR): at least 3.6 fold
